We go through 13 compounds from PMC11243066, “Synthesis and Biological Evaluation of Novel Biased Mu-Opioid Receptor Agonists” (Molecules, 2024).

Data set [1] relates to mice. Put plainly: Respiratory depression (blood pO2, blood gas analyzer). To be noted: single i.v. dose 20 mg/kg (morphine 4 mg/kg), 5-40 min.
Procedure: (§2) The mice were group-housed in a controlled temperature environment and subjected to a 12 h light/dark cycle (lights on from 07:00 to 19:00). Food and water were provided ad libitum. All animal procedures were conducted in accordance with the policies and recommendations of the International Association for the Study of Pain and the National Health and Animal Welfare Committee of the Beijing Institute of Pharmacology, with the aim of minimizing the number of animals used and their suffering.
In data set [2] the test system is mice. Description: Physical dependence (naloxone-precipitated withdrawal jumping). The conditions noted are these: i.v. once daily for 5 days, PZM21 and 6a 20 mg/kg, morphine 2 mg/kg, jumps over 20 min.
Procedure: as §2
The next data set addresses T1, human μ-opioid receptor (Homo sapiens, UniProt P35372).
T1 construct: expressed in transfected cells; host or cells: CHO (CHO/μOR cells)
Put plainly: cell-based. It counts as cell-based. The conditions noted are these: CHO/μOR cells; for EC50: cAMP inhibition, "-" = no measurable activity, read-out: EC50 (nM) (95% CI), µOR-Gi/o activation assay; for EC50 / Emax: n = 3; for Emax: at the concentration printed in parentheses in the cell, read-out: Max Effect ± SEM (%), µOR-Gi/o activation assay. As for the experimental part:
The inhibition assay was performed as described previously. In brief, tested compound dilutions (with final concentrations of 100 µM, 50 µM, 10 µM, 1 µM, 500 nM, 100 nM, 50 nM, 10 nM, 1 nM, and 100 pM) were produced in saline or DMSO in triplicate. CHO/μOR cells were suspended in the assay buffer and counted, maintaining a cell density of 2000 cells per well, with 5 µL from each well seeded into a 384-well plate. Subsequently, 5 µL of the tested compound solution per well was dispensed into the plate, which was then placed in a 25 °C incubator and incubated in the dark for 30 min. Next, 10 µL of cAMP standard working solution was added to the empty wells of the plate, followed by the addition of 5 µL of Eu-cAMP and Anti-cAMP per well. The plate was subsequently placed back in a 25 °C incubator and further incubated in the dark for 1 h.
CHO cells expressing the human μ-opioid receptor were cultivated for the assessment of compound effects. […] Cells collected during the exponential phase of growth were dissociated without enzymes to preserve receptor integrity, resuspended in assay buffer, and counted to achieve a uniform concentration. Cell density was adjusted to 2000 cells per well in a 384-well plate, promoting uniform distribution and optimal receptor presence. Post-seeding at 25 °C in darkness facilitated cell adherence and stabilization prior to compound introduction. Compounds were added in serial dilutions, with meticulous dispensing techniques ensuring dose uniformity. Following a 1 h incubation at 25 °C, TR-FRET reagents were applied to measure cAMP levels, indicative of μOR activity. The Envision system recorded these levels, quantifying compound inhibitory effects. Meticulous aseptic techniques and vigilant monitoring were imperative throughout to guarantee data precision from the assay.

In data set [3] the target is T2, human μOR β-arrestin2 pathway (Homo sapiens, UniProt P35372).
T2 construct: β-galactosidase enzyme fragment (PathHunter complementation tag); host or cells: U2OS (U2OS/human μOR β-arrestin cells)
Put plainly: cell-based. The conditions noted are these: for Emax: read-out: Max Effect ± SEM (%), µOR β-arrestin recruitment assay; for EC50: "-" = no measurable activity, read-out: EC50 (nM) (95% CI), µOR β-arrestin recruitment assay. The class given is cell-based. As for the experimental part:
In this assay, optical signal values were detected employing the PathHunter® (DiscoverX, Shanghai, China) Detection Kit assay method. The agonistic activity of tested compounds on the human μOR β-arrestin2 pathway was quantified using a β-galactosidase-based enzyme fragment complementation assay. In brief, tested compound dilutions (with final concentrations of 100 μM, 50 μM, 10 μM, 1 μM, 500 nM, 100 nM, 50 nM, 10 nM, 1 nM, and 100 pM) were produced in saline or DMSO in triplicate. Next, 100 nL of the tested compound solution per well was dispensed into a 384-well cell culture plate. The U2OS/human μOR β-arrestin cells were resuspended in Opti-MEM and counted to achieve a cell density of 4000 cells per well, and 20 μL from each well was seeded into the 384-well cell culture plate. The plate was subsequently incubated at 37 °C in the dark for 120 min. Post-incubation, the cell plate was equilibrated to room temperature for 10–20 min, and 5 μL of the detection reagent were added to each well. Following a 60 min incubation at 25 °C, chemiluminescent readings were obtained using the envision system.
The cells were maintained at 37 °C with 5% CO2 in McCoy’s 5a medium with supplements and cultivated utilizing precise techniques to ensure accurate, reproducible results. Cells were gently dissociated for assays to maintain receptor integrity and resuspended in Opti-MEM® for compatibility with the PathHunter® (DiscoverX, Shanghai, China). Detection Kit. Cell density was adjusted to 4000 cells per well in a 384-well plate, to ensure that a uniform monolayer was established for the β-galactosidase assay. After seeding and incubation in the dark at 37 °C to facilitate cell attachment, the plates were equilibrated to room temperature prior to compound treatment. Serial dilutions of the compounds were assessed for pharmacological effect. A detection reagent was then added to measure β-galactosidase activity as indicative of μ-opioid receptor and β-arrestin2 interaction. Following reagent incubation, chemiluminescence was quantified, providing quantitative data on compound agonistic activity. Throughout, meticulous aseptic technique and strict adherence to protocols were imperative to ensure the integrity of the pharmacological data derived from these studies.
In general terms: Activated receptors often draw arrestin, which recruitment assays turn into a signal.

The subject of data set [4] is mice. Put plainly: Acetic acid-induced writhing test. It counts as in vivo, CD-1 mice. To be noted: 20 mg/kg i.v. tail vein. As for the experimental part:
(§1) Food and water were provided ad libitum.
The acetic acid-induced writhing test was performed as described previously. In brief, after pretreatment with the test compound at a dose of 20 mg/kg via intravenous tail vein injection, 1% (v/v) glacial acetic acid was administered intraperitoneally (i.p.) at a dose of 10 mL/kg. Subsequently, the number of writhing responses over a 20 min period was recorded. The antinociception rate was calculated as the percentage of maximal possible effect (%MPE), where %MPE = 100 × (NWV − NWT)/NWV. NWV and NWT represent the average number of writhing responses of the vehicle and test groups, respectively.
For orientation: An intraperitoneal irritant provokes the stretching counted in writhing tests.

For data set [5], the system named is mice. Put plainly: Formalin paw-licking test. To be noted: 20 mg/kg i.v. tail vein, Phase II. It counts as in vivo, CD-1 mice. As for the experimental part: as §1
The formalin injection assay was performed as described previously. […] After 15 min, 30 µL of a 2.7% formalin solution was administered into the right hind paw of each mouse. Then, the mice were put into the cage and their behaviors were observed. The antinociception rate was quantified as the percentage of maximal possible effect (%MPE), calculated as %MPE = 100 × (PLTV − PLTT)/PLTV; PLTV and PLTT represent the average paw-licking duration during Phase II for the vehicle and test groups, respectively.

Data set [6] concerns mice. Put plainly: Hot-water tail withdrawal test. The class given is in vivo, CD-1 mice. To be noted: 20 mg/kg i.v. tail vein, 15 min post administration. As for the experimental part:
as §1
The hot-water tail withdrawal test was performed as described previously. In brief, the hot-water tail withdrawal test was conducted using a water bath maintained at 55 ± 0.5 °C. The distal 3 cm section of the mouse’s tail was immersed perpendicularly into the hot water. The duration for which the tail remained in the water was recorded as the initial tail withdrawal latency (TWL0). […] Following the administration of a single dose of the test compound (20 mg/kg, i.v.) or vehicle, the subsequent tail withdrawal latency (TWL) was measured at various time intervals (15, 30, 45, 60, and 90 min). To prevent potential tissue damage, a maximum cutoff latency of 16 s was enforced. Antinociception was quantified using the percentage of maximal possible effect (%MPE), calculated as %MPE = 100 × (TWL − TWL0)/(16 − TWL0).

[7] abbreviates: U2OS/human μOR β-arrestin cells, at the concentration printed in parentheses in the cell, n = 3.
[8] abbreviates: U2OS/human μOR β-arrestin cells, n = 3.

Where two headings read alike, the source gives them in different places.

T1 sequence (P35372 whole entry): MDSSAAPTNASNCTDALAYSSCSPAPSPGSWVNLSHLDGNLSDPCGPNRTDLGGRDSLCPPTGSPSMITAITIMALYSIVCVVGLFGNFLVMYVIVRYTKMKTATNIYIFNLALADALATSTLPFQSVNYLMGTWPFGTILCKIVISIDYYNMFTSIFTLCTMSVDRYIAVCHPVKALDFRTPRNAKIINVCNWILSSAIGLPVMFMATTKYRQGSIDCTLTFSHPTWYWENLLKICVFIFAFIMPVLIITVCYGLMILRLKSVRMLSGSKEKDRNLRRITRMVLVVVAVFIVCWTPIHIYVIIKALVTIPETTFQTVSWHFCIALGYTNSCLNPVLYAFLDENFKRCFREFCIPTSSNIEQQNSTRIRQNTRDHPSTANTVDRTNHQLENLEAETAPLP
T2 sequence (P35372 whole entry, the tested form may be a part): as the sequence (P35372 whole entry) above

`CN1CC[C@]23c4c5ccc(O)c4O[C@H]2[C@@H](O)C=C[C@H]3[C@H]1C5` [Morphine]: in the data set on mice [1], the “respiratory depression: partial pressure of oxygen in blood vs vehicle” value is on record as “significant reduction in the partial pressure of oxygen level”. For the same compound, in the data set on mice [2], the “physical dependence: jumping after naloxone-precipitated withdrawal vs vehicle” value is “significantly greater frequency of jumping”.

As for `CN(C)[C@H](CNC(=O)NCC1CCCCC1)Cc1cccc2ccccc12` [6k, (S)-1-(cyclohexylmethyl)-3-(2-(dimethylamino)-3-(naphthalen-1-yl)propyl) urea], the EC50 (at human μ-opioid receptor; in data set [3] (setting [8])) was > 100000 nM throughout. The Emax at human μ-opioid receptor was determined as 20.4 ± 10.6%; in data set [3] (setting [7]) it was 4.15 ± 0.02%. The “analgesia rate (%MPE), acetic acid-induced writhing” value (from here on “analgesia rate (%MPE)”) with mice [4] is recorded as “exceeding 97%”.

`Cc1ccccc1CCNC(=O)NC[C@H](Cc1cccc2ccccc12)N(C)C` [6f, (S)-1-(2-(dimethylamino)-3-(naphthalen-1-yl)propyl)-3-(2-methylphenethyl) urea]: at human μ-opioid receptor, the “µOR agonist efficacy in Gi/o-protein signaling assay (in words)” value (from here on “µOR agonist efficacy”) was “significant µOR agonist efficacy”, the EC50 amounted to 107 nM and the Emax came to 84.8 ± 1.86%. For the same compound, the Emax in data set [3] (setting [7]) came to 5.45 ± 1.75%. In addition, the EC50 in data set [3] (setting [8]) is > 100000 nM. The “analgesia rate (%MPE)” value in the data set on mice [4] is on record as “exceeding 97%”. For the same compound, the “antinociceptive efficacy (%MPE), formalin-induced paw licking, second phase” value in the data set with mice [5] is recorded as 59.32%.

Take `CN(C)[C@H](CNC(=O)NCc1ccc(F)cc1)Cc1cccc2ccccc12` [6c, (S)-1-(2-(dimethylamino)-3-(naphthalen-1-yl)propyl)-3-(4-fluorobenzyl) urea]: the EC50 is 72.8 nM on human μ-opioid receptor and > 100000 nM in data set [3] (setting [8]). The Emax came to 42.67 ± 0.27% at human μ-opioid receptor and 1.06 ± 0.93% in data set [3] (setting [7]).

Regarding `COc1ccc(CCNC(=O)NC[C@H](Cc2cccc3ccccc23)N(C)C)cc1` [6e, (S)-1-(2-(dimethylamino)-3-(naphthalen-1-yl)propyl)-3-(4-methoxyphenethyl) urea], the EC50 (on human μ-opioid receptor; in data set [3] (setting [8])) was > 100000 nM throughout. Moreover, the Emax on human μ-opioid receptor is -1.41 ± 5.21%; in data set [3] (setting [7]), 2.95 ± 1.37%.

Turning to `CN(C)[C@H](CNC(=O)NCCc1ccc(F)cc1)Cc1cccc2ccccc12` [6d, (S)-1-(2-(dimethylamino)-3-(naphthalen-1-yl)propyl)-3-(4-fluorophenethyl) urea], the EC50 on human μ-opioid receptor was 88 nM; in data set [3] (setting [8]), > 100000 nM. For the same compound, the Emax amounted to 87.8 ± 1.18% on human μ-opioid receptor and 7.72 ± 2.88% in data set [3] (setting [7]).

Turning to `CN(C)[C@H](CNC(=O)NCCc1ccccc1)Cc1cccc2ccccc12` [6b, (S)-1-(2-(dimethylamino)-3-(naphthalen-1-yl)propyl)-3-phenethyl urea], the EC50 at human μ-opioid receptor was 110 nM; in data set [3] (setting [8]) it was > 100000 nM. The values for the Emax (at human μ-opioid receptor; in data set [3] (setting [7])) were 73.9 ± 2.38% and 1.99 ± 1.77%, respectively. Moreover, in the data set on mice [6], the “pain inhibition rate (%MPE), hot-water tail-withdrawal test” value is 35.89%.

`C[C@@H](NC(=O)[C@@H](N)Cc1ccc(O)cc1)C(=O)NCC(=O)N(C)[C@@H](Cc1ccccc1)C(=O)NCCO` [DAMGO, [D-Ala2, N-MePhe4, Gly-ol]-enkephalin, reference compound]: the Emax in data set [3] (U2OS) was determined as 91.2%.

For `CN(C)[C@H](CNC(=O)Nc1ccccc1)Cc1cccc2ccccc12` [6g, (S)-1-(2-(dimethylamino)-3-(naphthalen-1-yl)propyl)-3-phenyl urea], on human μ-opioid receptor, the “µOR agonist efficacy” value is given as “significant µOR agonist efficacy”, the EC50 came to 59.5 nM and the Emax was determined as 24.6 ± 0.4%. Further, the Emax in data set [3] (setting [7]) was 1.12 ± 0.52%. Besides, the EC50 in data set [3] (setting [8]) was > 100000 nM.

With `Cc1ccccc1NC(=O)NC[C@H](Cc1cccc2ccccc12)N(C)C` [6i, (S)-1-(2-(dimethylamino)-3-(naphthalen-1-yl)propyl)-3-(o-tolyl) urea], the EC50 (on human μ-opioid receptor; in data set [3] (setting [8])) was > 100000 nM throughout. The Emax was 7.1 ± 0.77% on human μ-opioid receptor and 1.96 ± 0.72% in data set [3] (setting [7]).

For `CN(C)[C@H](CNC(=O)NCc1ccco1)Cc1cccc2ccccc12` [6j, (S)-1-(2-(dimethylamino)-3-(naphthalen-1-yl)propyl)-3-(furan-2-ylmethyl) urea], on human μ-opioid receptor, the “µOR agonist efficacy” value was “significant µOR agonist efficacy”, the EC50 stood at 97.8 nM and the Emax stood at 27.2 ± 1.71%. Further, the Emax in data set [3] (setting [7]) amounted to 1.63 ± 0.32%. The EC50 in data set [3] (setting [8]) is > 100000 nM.

For `CN(C)[C@H](CNC(=O)NC1CCCCC1)Cc1cccc2ccccc12` [6l, (S)-1-cyclohexyl-3-(2-(dimethylamino)-3-(naphthalen-1-yl)propyl) urea], the EC50 (at human μ-opioid receptor; in data set [3] (setting [8])) was > 100000 nM in each case. Further, the Emax on human μ-opioid receptor amounted to 18.1 ± 1.81%; in data set [3] (setting [7]), 1.96 ± 0.45%.

For `Cc1ccccc1CNC(=O)NC[C@H](Cc1cccc2ccccc12)N(C)C` [6h, (S)-1-(2-(dimethylamino)-3-(naphthalen-1-yl)propyl)-3-(2-methylbenzyl) urea], at human μ-opioid receptor, the “µOR agonist efficacy” value is reported as “significant µOR agonist efficacy”, the EC50 is 13.1 nM and the Emax was found to be 41.7 ± 0.07%. For the same compound, the Emax in data set [3] (setting [7]) was 2.19 ± 1.91%. Besides, the EC50 in data set [3] (setting [8]) is > 100000 nM. In addition, the “analgesia rate (%MPE)” value in the data set on mice [4] is reported as “exceeding 97%”. Besides, the “pain inhibition rate (%MPE), hot-water tail-withdrawal test” value with mice [6] is 41.73%. The “antinociceptive efficacy (%MPE), formalin-induced paw licking, second phase” value in the data set with mice [5] came out at 78.03%.
